# Source: patent publication US20080146606A1, “NOVEL COMPOUNDS” (priority 2006, published 2008)
# System: LPS-induced TNFα production
# Assay: LPS-induced TNFα production in rats
# Assay type: in vivo
# Details: Rattus norvegicus, po, pretreated orally
# Experimental: Male Lewis rats (180-200 g) from Charles River Breeding Laboratories (Portage) ACUC Protocol#05051 were pretreated orally with compound or vehicle. After a determined pretreatment time, the rats were given LPS (lipopolysaccharide from Escherichia coli Serotype 055-B5, Sigma Chemical Co., St Louis, Mo.) 30 μg/rat in 0.5 ml saline, intraperitoneally. The rats were euthanized by CO2 inhalation 90 minutes after the LPS injection and blood samples were collected by cardiac puncture, transferred into heparinized tubes and stored on ice. The blood samples were centrifuged at 2000 rpm for 10 minutes and the plasma collected for analysis by specific ELISA for TNFα levels.
# The plasma samples were assayed for TNFα according to manufactures specifications. TNFα levels were expressed as pg/ml. Elisa kits were purchased from R&D Systems Inc. (Rat TNFα Quantikine Kit Catalog#RTA00).
smiles,measurement,value
"O=S(=O)(NCCO)c1ccc(-c2ccnc3[nH]c(C4CC4)cc23)cc1 [Example 145a, 4-(2-Cyclopropyl-1H-pyrrolo[2,3-b]pyridin-4-yl)-N-(2-hydroxyethyl)-benzenesulfonamide]",ED50,< 20 mg/kg
